Assay results published in publication PMC6735358, “Synthesis and bioevaluation of novel steroidal isatin conjugates derived from epiandrosterone/androsterone” (Journal of Enzyme Inhibition and Medicinal Chemistry, 2019).

Key:
[1] = test system: A875 (Human melanoma cell line); test: MTT in vitro cytotoxicity, A875; details: A875, 72 h, read-out: In vitro cytotoxicity IC50
Experimental: (§2) After removal of the growth medium, six serial dilutions of each tested compound in 200 µL test medium were added. Plates were incubated at 37 °C in a humidified atmosphere containing 5% CO2. After 72 h of exposure, the culture medium was removed and 30 µL of the MTT solution (5 mg/mL in PBS) was added to each well. The plate was further incubated for 4 h to allow MTT formazan formation. To dissolve the resulting MTT formazan, 50 µL of DMSO was added to each well, followed by thorough mixing with a microplate shaker. Absorbance at 570 nm was measured on a microplate reader (Thermo Scientific, MK3). […] Assays were performed in triplicate on three independent experiments.

[2] = test system: HepG2 (Human hepatocellular liver carcinoma cell line); test: MTT in vitro cytotoxicity, HepG2; details: HepG2, 72 h, read-out: In vitro cytotoxicity IC50
Experimental: as §2

[3] = test system: SGC-7901, A875 and HepG2 cell lines; test: MTT in vitro cytotoxicity, tested cancer cell lines together; format: cell-based, human; details: for dose-response of cell growth inhibition: SGC-7901, A875 and HepG2, Figure 4; for IC50: Homo sapiens, span over SGC-7901, A875, HepG2, read-out: range of IC50 value over the tested cancer cell lines
Experimental: (§1) Assays were performed in triplicate on three independent experiments.

[4] = test system: SGC-7901 (Human gastric cancer cell line); test: MTT in vitro cytotoxicity, SGC-7901; details: SGC-7901, 72 h, read-out: In vitro cytotoxicity IC50
Experimental: as §2

in vitro = details: human
Experimental: as §1

Row | Structure (SMILES) | IC50 [1] [µM] | IC50 [2] [µM] | dose-response of cell growth inhibition [3] | IC50 [4] [µM] | IC50 (in vitro) [µM] | IC50 (in vitro; HL-7702 normal liver cells) [µM] | IC50 [3] [µM]
1 | C[C@]12CC[C@@H](O)C[C@@H]1CC[C@@H]1[C@@H]2CC[C@]2(C)C(=NN=C3C(=O)Nc4ccc(Cl)cc43)CC[C@@H]12 [6c, 5-Chloro-3-(((3R,5S,8R,9S,10S,13S,14S)-3-hydroxy-10,13-dimethyldodecahydro-1H-cyclopenta[a]phenanthren-17(2H,10H,14H)-ylidene)hydrazono)indolin-2-one] | 8.78 ± 0.64 | 4.84 ± 1.05 | dose-dependent manner | 6.83 ± 2.01 | 6.36 ± 1.37 | – | –
2 | O=c1[nH]cc(F)c(=O)[nH]1 [5-FU, 5-Fluorouracil, reference compound] | 65.3 ± 7.3 | 63.2 ± 12.6 | – | 62 ± 8.38 | – | 86 ± 9.61 | –
3 | C[C@]12CC[C@H](O)CC1CC[C@@H]1[C@@H]2CC[C@]2(C)C(=NN=C3C(=O)Nc4ccc(Br)cc43)CC[C@@H]12 (stereo partly drawn) [3d, 5-Bromo-3-(((3S,8R,9S,10S,13S,14S)-3-hydroxy-10,13-dimethyldodecahydro-1H-cyclopenta[a]phenanthren-17(2H,10H,14H)-ylidene)hydrazono)indolin-2-one] | 11.6 ± 2.84 | 8.29 ± 2.41 | – | 8.43 ± 2.23 | 14.1 ± 3.79 | – | –
4 | C[C@]12CC[C@H](O)CC1CC[C@@H]1[C@@H]2CC[C@]2(C)C(=NN=C3C(=O)Nc4ccc([N+](=O)[O-])cc43)CC[C@@H]12 (stereo partly drawn) [3g, 3-(((3S,8R,9S,10S,13S,14S)-3-Hydroxy-10,13-dimethyldodecahydro-1H-cyclopenta[a]phenanthren-17(2H,10H,14H)-ylidene)hydrazono)-5-nitroindolin-2-one] | 26.2 ± 4.59 | 19.4 ± 3.37 | – | 11.9 ± 2.45 | 33.4 ± 6.15 | – | –
5 | C[C@]12CC[C@@H](O)C[C@@H]1CC[C@@H]1[C@@H]2CC[C@]2(C)C(=NN=C3C(=O)Nc4ccc([N+](=O)[O-])cc43)CC[C@@H]12 [6g, 3-(((3R,5S,8R,9S,10S,13S,14S)-3-Hydroxy-10,13-dimethyldodecahydro-1H-cyclopenta[a]phenanthren-17(2H,10H,14H)-ylidene)hydrazono)-5-nitroindolin-2-one] | 3.85 ± 1.44 | 4.31 ± 0.92 | dose-dependent manner | 6.4 ± 1.74 | 11.2 ± 3.05 | – | 3.85 to 6.4
6 | Cc1ccc2c(c1)C(=NN=C1CC[C@H]3[C@@H]4CC[C@H]5C[C@H](O)CC[C@]5(C)[C@H]4CC[C@]13C)C(=O)N2 [6f, 3-(((3R,5S,8R,9S,10S,13S,14S)-3-Hydroxy-10,13-dimethyldodecahydro-1H-cyclopenta[a]phenanthren-17(2H,10H,14H)-ylidene)hydrazono)-5-methylindolin-2-one] | 8.25 ± 1.97 | 4.85 ± 1.07 | – | 9.12 ± 1.61 | 12.5 ± 4.36 | – | –
7 | C[C@]12CC[C@@H](O)C[C@@H]1CC[C@@H]1[C@@H]2CC[C@]2(C)C(=NN=C3C(=O)Nc4ccc(I)cc43)CC[C@@H]12 [6e, 3-(((3R,5S,8R,9S,10S,13S,14S)-3-Hydroxy-10,13-dimethyldodecahydro-1H-cyclopenta[a]phenanthren-17(2H,10H,14H)-ylidene)hydrazono)-5-iodoindolin-2-one] | 19.7 ± 1.89 | 8.99 ± 3.13 | – | 17.1 ± 3.68 | 18.5 ± 1 | – | 8 to 20
8 | Cc1ccc2c(c1)C(=NN=C1CC[C@H]3[C@@H]4CCC5C[C@@H](O)CC[C@]5(C)[C@H]4CC[C@]13C)C(=O)N2 (stereo partly drawn) [3f, 3-(((3S,8R,9S,10S,13S,14S)-3-Hydroxy-10,13-dimethyldodecahydro-1H-cyclopenta[a]phenanthren-17(2H,10H,14H)-ylidene)hydrazono)-5-methylindolin-2-one] | 6.01 ± 1.95 | 6.91 ± 0.58 | – | 7.06 ± 1.27 | 6.08 ± 0.54 | – | –
9 | C[C@]12CC[C@@H](O)C[C@@H]1CC[C@@H]1[C@@H]2CC[C@]2(C)C(=NN=C3C(=O)Nc4cc(F)ccc43)CC[C@@H]12 [6h, 6-Fluoro-3-(((3R,5S,8R,9S,10S,13S,14S)-3-hydroxy-10,13-dimethyldodecahydro-1H-cyclopenta[a]phenanthren-17(2H,10H,14H)-ylidene)hydrazono)indolin-2-one] | 7.71 ± 2.13 | 5.41 ± 1.44 | – | 9.2 ± 1.68 | 12.8 ± 2.79 | – | –
10 | C[C@]12CC[C@@H](O)C[C@@H]1CC[C@@H]1[C@@H]2CC[C@]2(C)C(=O)CC[C@@H]12 [Androsterone] | > 100 | > 100 | – | > 100 | > 100 | – | –
11 | C[C@]12CC[C@H](O)C[C@@H]1CC[C@@H]1[C@@H]2CC[C@]2(C)C(=O)CC[C@@H]12 [Epiandrosterone] | 63.6 ± 13.2 | 36.7 ± 10.6 | – | 69.8 ± 8.47 | 91.2 ± 12.3 | – | –
12 | C[C@]12CC[C@H](O)CC1CC[C@@H]1[C@@H]2CC[C@]2(C)C(=NN=C3C(=O)Nc4ccc(Cl)cc43)CC[C@@H]12 (stereo partly drawn) [3c, 5-Chloro-3-(((3S,8R,9S,10S,13S,14S)-3-hydroxy-10,13-dimethyldodecahydro-1H-cyclopenta[a]phenanthren-17(2H,10H,14H)-ylidene)hydrazono)indolin-2-one] | 7.92 ± 1.95 | 2.39 ± 0.36 | dose-dependent manner | 4.92 ± 1.13 | 5.01 ± 1.37 | – | –
13 | C[C@]12CC[C@H](O)CC1CC[C@@H]1[C@@H]2CC[C@]2(C)C(=NN=C3C(=O)Nc4ccccc43)CC[C@@H]12 (stereo partly drawn) [3a, 3-(((3S,8R,9S,10S,13S,14S)-3-Hydroxy-10,13-dimethyldodecahydro-1H-cyclopenta[a]phenanthren-17(2H,10H,14H)-ylidene)hydrazono)indolin-2-one] | 9.51 ± 1.34 | 6.72 ± 1.59 | – | 7.69 ± 2.54 | 5.65 ± 1.59 | – | –
14 | C[C@]12CC[C@@H](O)C[C@@H]1CC[C@@H]1[C@@H]2CC[C@]2(C)C(=NN=C3C(=O)Nc4ccccc43)CC[C@@H]12 [6a, 3-(((3R,5S,8R,9S,10S,13S,14S)-3-Hydroxy-10,13-dimethyldodecahydro-1H-cyclopenta[a]phenanthren-17(2H,10H,14H)-ylidene)hydrazono)indolin-2-one] | 21.7 ± 4.82 | 20.4 ± 6.69 | – | 13.8 ± 2.65 | 8.29 ± 2.24 | – | –
15 | C[C@]12CC[C@@H](O)C[C@@H]1CC[C@@H]1[C@@H]2CC[C@]2(C)C(=NN=C3C(=O)Nc4ccc(F)cc43)CC[C@@H]12 [6b, 5-Fluoro-3-(((3R,5S,8R,9S,10S,13S,14S)-3-hydroxy-10,13-dimethyldodecahydro-1H-cyclopenta[a]phenanthren-17(2H,10H,14H)-ylidene)hydrazono)indolin-2-one] | 42.2 ± 8.19 | 32.3 ± 4.21 | – | 9.51 ± 0.49 | 7.09 ± 1.57 | – | –
16 | C[C@]12CC[C@H](O)CC1CC[C@@H]1[C@@H]2CC[C@]2(C)C(=NN=C3C(=O)Nc4ccc(F)cc43)CC[C@@H]12 (stereo partly drawn) [3b, 5-Fluoro-3-(((3S,8R,9S,10S,13S,14S)-3-hydroxy-10,13-dimethyldodecahydro-1H-cyclopenta[a]phenanthren-17(2H,10H,14H)-ylidene)hydrazono)indolin-2-one] | 8.58 ± 1.64 | 6.12 ± 1.79 | dose-dependent manner | 6.67 ± 1.77 | 5.49 ± 1.33 | – | –
17 | C[C@]12CC[C@@H](O)C[C@@H]1CC[C@@H]1[C@@H]2CC[C@]2(C)C(=NN=C3C(=O)Nc4ccc(Br)cc43)CC[C@@H]12 [6d, 5-Bromo-3-(((3R,5S,8R,9S,10S,13S,14S)-3-hydroxy-10,13-dimethyldodecahydro-1H-cyclopenta[a]phenanthren-17(2H,10H,14H)-ylidene)hydrazono)indolin-2-one] | 8.08 ± 0.51 | 6.1 ± 2.09 | – | 7.14 ± 1.41 | 4.4 ± 0.68 | – | –
18 | C[C@]12CC[C@H](O)CC1CC[C@@H]1[C@@H]2CC[C@]2(C)C(=NN=C3C(=O)Nc4ccc(I)cc43)CC[C@@H]12 (stereo partly drawn) [3e, 3-(((3S,8R,9S,10S,13S,14S)-3-Hydroxy-10,13-dimethyldodecahydro-1H-cyclopenta[a]phenanthren-17(2H,10H,14H)-ylidene)hydrazono)-5-iodoindolin-2-one] | 23.8 ± 4.39 | 18.6 ± 4.79 | – | 21.7 ± 3.86 | 14 ± 2.83 | – | –
19 | C[C@]12CC[C@H](O)CC1CC[C@@H]1[C@@H]2CC[C@]2(C)C(=NN=C3C(=O)Nc4cc(F)ccc43)CC[C@@H]12 (stereo partly drawn) [3h, 6-Fluoro-3-(((3S,8R,9S,10S,13S,14S)-3-hydroxy-10,13-dimethyldodecahydro-1H-cyclopenta[a]phenanthren-17(2H,10H,14H)-ylidene)hydrazono)indolin-2-one] | 6.85 ± 1.99 | 4.85 ± 0.84 | – | 7.22 ± 1.17 | 7.87 ± 2.04 | – | –
